Assay results as given in paper PMC10723784, “Investigation of the cytotoxicity induced by cannabinoids on human ovarian carcinoma cells” (Pharmacology Research & Perspectives, 2023).
Read-outs that look alike come from different tables or passages of the source.

Legend:
A2780 cells [1] = test: Mitochondrial membrane potential assay (JC-1), A2780 cells; format: cell-based, human; details: A2780, 10-50 μM, 24 h, dose-dependent
Method: (§1) The mitochondrial membrane potential assay was performed to detect the loss in mitochondrial potential (de‐polarization), which is a vital step in apoptosis.[36] Cells were seeded in T25 flasks at 4 × 10^5 cells per flask and were incubated for 48 h or until they reached confluency. After the incubation time elapsed, drugs at concentrations of 10, 30, and 50 μM or vehicle were added to the flasks and further incubated for 24 h. After 24 h elapsed, the cells were harvested and suspended in PBS. Cell viability and number were determined by the cell viability assay using via1 cassettes on NC‐3000 system. The samples were diluted in PBS to 1 × 10^6 cells/mL and 2.5 μg/mL of JC‐1 dye was added to each sample. JC‐1 is a […] dye, which stains as fluorescent red as it aggregates in the mitochondrial matrix. In the absence of mitochondrial membrane potential, JC‐1 localizes in the cytosol in its fluorescent green form. Following the addition of JC‐1, the cells were incubated for 10–30 min at 37°C. […] 12.5 μL of samples were loaded on to an A‐8 slide and were analyzed using the NC‐3000 image cytometry. The degree of apoptosis (in proportional to the loss in mitochondrial membrane potential) was measured using a scatter plot of JC‐1 red fluorescence versus JC‐1 green fluorescence.

A2780/CP70 cells = test: Mitochondrial membrane potential assay (JC-1), A2780/CP70 cells; format: cell-based, human; details: A2780/CP70, 10-50 μM, 24 h, dose-dependent
Method: as §1

ARPE19 cells = test: Annexin V assay, ARPE19 cells; format: cell-based, human; details: ARPE19, 50 μM, 24 h
Method: The Annexin V assay was performed to differentiate healthy cells from early and late apoptotic cells. Cells were seeded in T25 flasks at 2.75 × 10^5 cells per flask and were incubated for 24 h. After the incubation time elapsed, drugs at concentrations of 10, 30, and 50 μM or vehicle were added to the flasks and further incubated for 24 h. Cells were suspended in PBS at a density of 4 × 10^5 cells/mL, followed by centrifugation at 400 g for 5 min. The supernatant was removed and replaced with 100 μL of Annexin V mix, 94 μL of Roche buffer, 2 μL of Annexin V‐CF488A, 2 μL of 10 μg/mL of propodium iodide (PI), and 2 μL of Hoechst 33342 buffer. Hoechst 33342 buffer in the Annexin V mix binds to the nuclei in the sample and fluoresces violet. The early apoptotic cells are stained with Annexin V‐CF488A, which fluoresces green. The non‐viable cells are stained by PI, and the late apoptotic cells are stained by both PI and Annexin V‐CF488A, which fluoresces red and green, respectively. […] After the incubation time elapsed, 40 μL of samples were loaded on to an A‐2 slide and were analyzed immediately using the NC‐3000 system. The scatter plot of the fluorescence intensity of Annexin V‐CF488A versus the fluorescence intensity of PI was used as a representation of cells in different stages of apoptosis.

A2780 cells [2] = test: MTT cytotoxicity assay, A2780 cells; details: for IC50: Homo sapiens, read-out: IC50 cytotoxicity
Method: In separate experiments, cells were seeded in 96‐well plates and after 24 h elapsed they were exposed to different concentrations of drugs or vehicle. Cells were then left in the incubator for a further 24 or 48 h. Then the media was replaced with fresh media containing no drug and the cells were left in the incubator. MTT assay was performed after 96 h elapsed from the time when cells were exposed to drugs or vehicle.
The cells were then left in the incubator and MTT assay was performed 96 h following the initial exposure to the drugs.
The selective index (SI) is the ratio of mean IC50 values for non‐cancer cells to cancer cells. […] While the isobologram can be considered predominantly as a graphical depiction of drug interactions, the combination index (CI) is a quantitative representation. It relates the actual drug concentration in the combination to the concentration of the single drug that achieves the same effect. […] Here, CI analysis was used to investigate combinations at 50% cytotoxicity. To this end the IC50 of the viability dose–response curves were determined by non‐linear regression curve fit analysis (GraphPad Prism, v5.00).
CIA+B is the combination index of A and B; C A the concentration of A applied in combination; C B the concentration of B applied in combination; IC50 A the IC50 of drug A when it was applied individually to the cells; IC50 B = IC50 of drug B when it was applied individually to the cells.

For `CCCCCc1cc(O)c(C/C=C(\C)CCC=C(C)C)c(O)c1` [CBG, cannabigerol], the “Percentage of apoptotic cells (loss of mitochondrial membrane potential)” value (A2780 cells [1]) was “induced an increase in the percentage of apoptotic cells”, the “Percentage of apoptotic cells (loss of mitochondrial membrane potential)” value (A2780/CP70 cells) was “induced an increase in the percentage of apoptotic cells” and the “Cells in early apoptosis” value (ARPE19 cells) was 54 ± 2.1%. For the same molecule, the “Cells in late apoptosis” value (ARPE19 cells) was 5.6 ± 1.8%, the IC50 (A2780 cells [2]; A2780, 24 h) was 15.3 ± 0.3 µM and the IC50 (A2780 cells [2]; A2780, 48 h) was 13.9 ± 0.6 µM. It also gave an IC50 (A2780 cells [2]; A2780, 72 h) of 9.4 ± 0.8 µM, an IC50 (A2780 cells [2]; A2780, 96 h) of 5.7 ± 0.2 µM and a Selectivity index (A2780 cells [2]; IC50 ARPE19 / IC50 A2780, 24 h) of 2.09. For the same molecule, the Selectivity index (A2780 cells [2]; IC50 ARPE19 / IC50 A2780, 48 h) was 1.53, the Selectivity index (A2780 cells [2]; IC50 ARPE19 / IC50 A2780, 72 h) was 2.04 and the Selectivity index (A2780 cells [2]; IC50 ARPE19 / IC50 A2780, 96 h) was 3.05. It also gave a Selectivity index (A2780 cells [2]; IC50 PNT2 / IC50 A2780, 24 h) of 2.43, a Selectivity index (A2780 cells [2]; IC50 PNT2 / IC50 A2780, 48 h) of 1.65 and a Selectivity index (A2780 cells [2]; IC50 PNT2 / IC50 A2780, 72 h) of 2.12. It also gave a Selectivity index (A2780 cells [2]; IC50 PNT2 / IC50 A2780, 96 h) of 3.20.
